Values after ≈ are worked out from the molar mass of the structure shown.
What was measured:
human RXFP1 = biological target: T1, human RXFP1 (Homo sapiens, UniProt Q9HBX9); test: RXFP1 Hu cAMP (Test A); type: cell-based; design: expressed in transfected cells; host or cells: Jump-In T-REx CHO-K1 cells (ThermoFisher), induced with 10 ng/ml doxycycline for 24 h; settings: RXFP1 Hu cAMP; for EC50: read-out: Test A EC50
T1 sequence (Q9HBX9 1-757): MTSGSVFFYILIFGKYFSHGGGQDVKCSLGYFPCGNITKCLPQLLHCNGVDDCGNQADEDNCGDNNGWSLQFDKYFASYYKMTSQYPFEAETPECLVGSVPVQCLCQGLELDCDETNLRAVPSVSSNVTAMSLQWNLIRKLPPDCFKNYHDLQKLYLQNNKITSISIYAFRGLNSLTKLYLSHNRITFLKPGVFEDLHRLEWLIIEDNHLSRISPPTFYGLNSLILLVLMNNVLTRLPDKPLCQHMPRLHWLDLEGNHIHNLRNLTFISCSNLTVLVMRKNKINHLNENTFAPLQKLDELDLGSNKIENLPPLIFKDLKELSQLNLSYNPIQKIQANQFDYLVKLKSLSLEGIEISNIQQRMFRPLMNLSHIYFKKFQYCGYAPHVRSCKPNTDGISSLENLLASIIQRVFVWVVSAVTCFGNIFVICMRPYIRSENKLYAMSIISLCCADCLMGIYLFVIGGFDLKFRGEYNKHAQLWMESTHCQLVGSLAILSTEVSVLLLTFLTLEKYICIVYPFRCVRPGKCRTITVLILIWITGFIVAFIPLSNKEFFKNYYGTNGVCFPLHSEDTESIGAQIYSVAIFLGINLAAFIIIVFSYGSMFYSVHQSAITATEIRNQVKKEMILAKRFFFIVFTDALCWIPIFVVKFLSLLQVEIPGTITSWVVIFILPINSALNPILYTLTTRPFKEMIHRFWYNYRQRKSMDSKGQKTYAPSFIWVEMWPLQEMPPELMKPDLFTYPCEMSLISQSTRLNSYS
In short: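 CHO-K1 (Jump-In T-REx), RXFP1 induced w/ 10 ng/ml doxycycline 24 h, cryopreserved. 0.5 mM IBMX final. cAMP by HTRF, 2 h RT, std curve.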

Solubility (Test F) = type: physicochemical; settings: arithmetic mean if run multiple times
Method: The assay was conducted according to the Solubility Assay described in pages 164-167 of Wernevik, J. et al., “A Fully Integrated Assay Panel for Early Drug Metabolism and Pharmacokinetics Profiling”, Assay and Drug Development Technologies, 2020, 18(4), 157-179. Data are reported in Table 36 as solubility ([…]. Where the assay was run multiple times for the same compound, the arithmetic mean is reported.

[1] = Human Liver Microsomal Stability (Test C); type: in vitro ADME; settings: human, liver microsomes
In short: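 CLint (μl/min/mg protein) derived from compound depletion in human liver microsomes following a published standardized early-DMPK protocol; replicate determinations given as arithmetic mean.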

[2] = Rat Hepatocyte Stability (Test E); type: in vitro ADME; settings: rat, hepatocytes, geometric mean if run multiple times
In short: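 Intrinsic clearance in rat hepatocytes, expressed as μl/min/10^6 cells, following the literature integrated DMPK panel method. Repeat determinations combined as geometric mean.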

[3] = Human Plasma Protein Binding (Test B); type: in vitro ADME; settings: fraction unbound (fu)
In short: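 Values given as % free (fu) in human plasma, using the method of Wernevik et al. (2020). For compounds tested more than once, the arithmetic mean is given.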

For COc1cc(C#N)c(O[C@H]2CC[C@@](C)(C(=O)O)CC2)cc1C(=O)N[C@@H]1[C@H]2CC[C@H](C2)[C@@H]1C(=O)NCC1(CO)CCC1 [Example 75], the “Test A Sinf” value (human RXFP1) was 110%, the solubility (Solubility (Test F)) was 880 µM (≈ 500 µg/mL) and the microsomal CLint [1] was < 3 µL/min/mg. The hepatocyte CLint [2] was 14 µL/min/1e6 cells and the “Test B Human Plasma Protein Binding (% free)” value [3] was 25 % free.

With COc1cc(F)c(O[C@H]2CC[C@@](C)(C(=O)O)CC2)cc1C(=O)N[C@@H]1CC[C@@H]1C(=O)Nc1ccc(F)c(C(F)(F)F)c1 [Example 51, (1S,4s)-4-(2-Fluoro-5-(((1R,2S)-2-((4-fluoro-3-(trifluoromethyl)phenyl)carbamoyl)cyclobutyl)carbamoyl)-4-methoxyphenoxy)-1-methylcyclohexane-1-carboxylic acid] the “Test A Sinf” value (human RXFP1) was 112%, the EC50 (human RXFP1) was 58 nM and the solubility (Solubility (Test F)) was 170 µM (≈ 99.4 µg/mL). For the same compound, the microsomal CLint [1] was 8.5 µL/min/mg, the hepatocyte CLint [2] was 55 µL/min/1e6 cells and the “Test B Human Plasma Protein Binding (% free)” value [3] was 0.50 % free.

For COc1cc(C#N)c(O[C@H]2CC[C@@](C)(C(=O)O)CC2)cc1C(=O)N[C@@H]1[C@H]2CC[C@H](C2)[C@@H]1C(=O)NCC1(CF)CC1 [Example 95], the “Test A Sinf” value (human RXFP1) was 123%, the EC50 (human RXFP1) was 480 nM and the solubility (Solubility (Test F)) was 880 µM (≈ 489 µg/mL). The microsomal CLint [1] was 4.4 µL/min/mg, the hepatocyte CLint [2] was 21 µL/min/1e6 cells and the “Test B Human Plasma Protein Binding (% free)” value [3] was 18 % free.

With COc1cc(F)c(O[C@H]2CC[C@@H](C(=O)O)CC2)cc1C(=O)N[C@@H]1[C@H]2CC[C@H](C2)[C@@H]1C(=O)Nc1ccc(C(F)(F)F)cn1 [Example 13, (1S,4s)-4-(2-Fluoro-4-methoxy-5-(((1S,2R,3S,4R)-3-((5-(trifluoromethyl)pyridin-2-yl)carbamoyl)bicyclo[2.2.1]heptan-2-yl)carbamoyl)phenoxy)cyclohexane-1-carboxylic acid] the “Test A Sinf” value (human RXFP1) was 115%, the EC50 (human RXFP1) was 6300 nM and the solubility (Solubility (Test F)) was 520 µM (≈ 309 µg/mL). The microsomal CLint [1] was 24 µL/min/mg, the hepatocyte CLint [2] was 10 µL/min/1e6 cells and the “Test B Human Plasma Protein Binding (% free)” value [3] was 3.1 % free.

With COc1cc(C#N)c(O[C@H]2CC[C@@](C)(C(=O)O)CC2)cc1C(=O)N[C@@H]1[C@H]2CC[C@H](C2)[C@@H]1C(=O)NCC1(F)CCC1 [Example 94] the “Test A Sinf” value (human RXFP1) was 111%, the EC50 (human RXFP1) was > 710 nM and the solubility (Solubility (Test F)) was 830 µM (≈ 461 µg/mL). The microsomal CLint [1] was 9 µL/min/mg, the hepatocyte CLint [2] was 32 µL/min/1e6 cells and the “Test B Human Plasma Protein Binding (% free)” value [3] was 14 % free.

With COc1cc(F)c(O[C@H]2CC[C@@H](C(=O)O)CC2)cc1C(=O)N[C@@H]1[C@H]2CC[C@H](C2)[C@@H]1C(=O)NC12CC(C1)C2 [Example 178] the “Test A Sinf” value (human RXFP1) was 95%, the EC50 (human RXFP1) was > 2700 nM and the solubility (Solubility (Test F)) was > 1000 µM. For the same compound, the microsomal CLint [1] was 8.6 µL/min/mg, the hepatocyte CLint [2] was 39 µL/min/1e6 cells and the “Test B Human Plasma Protein Binding (% free)” value [3] was 17 % free.

In the case of COc1cc(F)c(O[C@H]2CC[C@@H](C(=O)O)CC2)cc1C(=O)N[C@@H]1[C@H]2CC[C@H](C2)[C@@H]1C(=O)Nc1cc(F)cc(S(F)(F)(F)(F)F)c1 [Example 17, (1S,4s)-4-(2-Fluoro-5-(((1S,2R,3S,4R)-3-((3-fluoro-5-(pentafluoro-6-sulfaneyl)phenyl)carbamoyl)bicyclo[2.2.1]heptan-2-yl)carbamoyl)-4-methoxyphenoxy)cyclohexane-1-carboxylic acid], the “Test A Sinf” value (human RXFP1) is reported as 110%, the EC50 (human RXFP1) is reported as 48 nM and the solubility (Solubility (Test F)) is reported as 150 µM (≈ 100 µg/mL). For the same compound, the microsomal CLint [1] was 20 µL/min/mg, the hepatocyte CLint [2] was 11 µL/min/1e6 cells and the “Test B Human Plasma Protein Binding (% free)” value [3] was <0.21 % free.

For COc1cc(F)c(O[C@H]2CC[C@@](C)(C(=O)O)CC2)cc1C(=O)N[C@@H]1[C@H]2CC[C@H](C2)[C@@H]1C(=O)N[C@@H](C)C(C)C [Example 42], the “Test A Sinf” value (human RXFP1) was 95%, the solubility (Solubility (Test F)) was > 1000 µM and the microsomal CLint [1] was < 3 µL/min/mg. The hepatocyte CLint [2] was 19 µL/min/1e6 cells and the “Test B Human Plasma Protein Binding (% free)” value [3] was 5.4 % free.

With COc1cc(C#N)c(O[C@H]2CC[C@@](C)(C(=O)O)CC2)cc1C(=O)N[C@@H]1[C@H]2CC[C@H](C2)[C@@H]1C(=O)NCC1(CO)CCCC1 [Example 109] the “Test A Sinf” value (human RXFP1) was 103%, the EC50 (human RXFP1) was 250 nM and the solubility (Solubility (Test F)) was 810 µM (≈ 471 µg/mL). For the same compound, the microsomal CLint [1] was 11 µL/min/mg, the hepatocyte CLint [2] was 26 µL/min/1e6 cells and the “Test B Human Plasma Protein Binding (% free)” value [3] was 17 % free.

In the case of COc1cc(C#N)c(O[C@H]2CC[C@@H](C(=O)O)CC2)cc1C(=O)N[C@@H]1[C@H]2CC[C@H](C2)[C@@H]1C(=O)Nc1cccc(S(=O)(=O)C(F)(F)F)c1 [Example 467, (1S,4s)-4-(2-Cyano-4-methoxy-5-(((1S,2R,3S,4R)-3-((3-((trifluoromethyl)sulfonyl)phenyl)carbamoyl)bicyclo[2.2.1]heptan-2-yl)carbamoyl)phenoxy)cyclohexane-1-carboxylic acid], the “Test A Sinf” value (human RXFP1) is reported as 99%, the EC50 (human RXFP1) is reported as 19 nM and the solubility (Solubility (Test F)) is reported as > 1000 µM. The microsomal CLint [1] was 37 µL/min/mg, the hepatocyte CLint [2] was 47 µL/min/1e6 cells and the “Test B Human Plasma Protein Binding (% free)” value [3] was 3.7 % free.

With COc1cc(F)c(O[C@H]2CC[C@@H](C(=O)O)CC2)cc1C(=O)N[C@@H]1[C@H]2CC[C@H](C2)[C@@H]1C(=O)Nc1cc(C#N)cc(C(F)(F)F)c1 [Example 191, (1S,4s)-4-(5-(((1S,2R,3S,4R)-3-((3-Cyano-5-(trifluoromethyl)phenyl)carbamoyl)bicyclo[2.2.1]heptan-2-yl)carbamoyl)-2-fluoro-4-methoxyphenoxy)cyclohexane-1-carboxylic acid] the “Test A Sinf” value (human RXFP1) was 86%, the EC50 (human RXFP1) was > 3600 nM and the solubility (Solubility (Test F)) was > 1000 µM. For the same compound, the microsomal CLint [1] was 20 µL/min/mg, the hepatocyte CLint [2] was 15 µL/min/1e6 cells and the “Test B Human Plasma Protein Binding (% free)” value [3] was 1.1 % free.

In the case of COc1cc(F)c(-c2ccc(CCC(=O)O)cc2)cc1C(=O)N[C@H]1[C@@H](C(=O)Nc2cccc(S(=O)(=O)C(F)(F)F)c2)[C@@H]2C=C[C@H]1C2 (racemic) [Example 283], the “Test A Sinf” value (human RXFP1) is reported as 87%, the EC50 (human RXFP1) is reported as 220 nM and the solubility (Solubility (Test F)) is reported as 220 µM (≈ 145 µg/mL). The microsomal CLint [1] was 12 µL/min/mg, the hepatocyte CLint [2] was 15 µL/min/1e6 cells and the “Test B Human Plasma Protein Binding (% free)” value [3] was <0.29 % free.

With COc1cc(F)c(O[C@H]2CC[C@@H](C(=O)O)CC2)cc1C(=O)N[C@@H]1[C@H]2CC[C@H](C2)[C@@H]1C(=O)Nc1cccc(CF)c1 [Example 11, (1S,4s)-4-(2-Fluoro-5-(((1S,2R,3S,4R)-3-((3-(fluoromethyl)phenyl)carbamoyl)bicyclo[2.2.1]heptan-2-yl)carbamoyl)-4-methoxyphenoxy)cyclohexane-1-carboxylic acid] the “Test A Sinf” value (human RXFP1) was 104%, the solubility (Solubility (Test F)) was > 1000 µM and the microsomal CLint [1] was 36 µL/min/mg. For the same compound, the hepatocyte CLint [2] was > 300 µL/min/1e6 cells and the “Test B Human Plasma Protein Binding (% free)” value [3] was 3.3 % free.

In the case of COc1cc(F)c(O[C@H]2CC[C@@H](C(=O)O)CC2)cc1C(=O)N[C@@H]1[C@H]2CC[C@H](C2)[C@@H]1C(=O)NC1CCC1 [Example 177], the “Test A Sinf” value (human RXFP1) is reported as 100%, the EC50 (human RXFP1) is reported as > 2200 nM and the solubility (Solubility (Test F)) is reported as > 1000 µM. The microsomal CLint [1] was 3.5 µL/min/mg, the hepatocyte CLint [2] was 130 µL/min/1e6 cells and the “Test B Human Plasma Protein Binding (% free)” value [3] was 15 % free.

For COc1cc(C#N)c(O[C@H]2CC[C@@](C)(C(=O)O)CC2)cc1C(=O)N[C@@H]1[C@H]2CC[C@H](C2)[C@@H]1C(=O)NCC1CC1 [Example 71, (1S,4s)-4-(2-Cyano-5-(((1S,2R,3S,4R)-3-((cyclopropylmethyl)carbamoyl)bicyclo[2.2.1]heptan-2-yl)carbamoyl)-4-methoxyphenoxy)-1-methylcyclohexane-1-carboxylic acid], the EC50 (human RXFP1) was 390 nM, the solubility (Solubility (Test F)) was 940 µM (≈ 492 µg/mL) and the microsomal CLint [1] was < 3 µL/min/mg. For the same compound, the hepatocyte CLint [2] was 28 µL/min/1e6 cells and the “Test B Human Plasma Protein Binding (% free)” value [3] was 17 % free.

With COc1cc(C)c(O[C@H]2CC[C@@H](C(=O)O)CC2)cc1C(=O)N[C@@H]1[C@H]2CC[C@H](C2)[C@@H]1C(=O)Nc1cccc(S(=O)(=O)C(F)(F)F)c1 [Example 465, (1S,4s)-4-(4-Methoxy-2-methyl-5-(((1S,2R,3S,4R)-3-((3-((trifluoromethyl)sulfonyl)phenyl)carbamoyl)bicyclo[2.2.1]heptan-2-yl)carbamoyl)phenoxy)cyclohexane-1-carboxylic acid] the “Test A Sinf” value (human RXFP1) was 97%, the EC50 (human RXFP1) was 120 nM and the solubility (Solubility (Test F)) was 300 µM (≈ 196 µg/mL). For the same compound, the microsomal CLint [1] was 74 µL/min/mg, the hepatocyte CLint [2] was 36 µL/min/1e6 cells and the “Test B Human Plasma Protein Binding (% free)” value [3] was 0.76 % free.
